Assay results: PubChem BioAssay AID1845197 (Molecular Pharmacology Branch, DTP, NCI, 2023)

Test system: 349418-098-R tumor spheroid viability
Assay: Anticancer human tumor 349418-098-R patient-derived lung adenocarcinoma cell line growth inhibition
Settings: spheroids with HUVEC and MSC; for IC50: curve of first compound; for viability, T/C: stronger effect = lower value
From the text: Multicellular complex tumor spheroid response to DNA repair inhibitors in combination with DNA-damaging drugs
This study explores the anticancer activities of DNA-damaging drugs and inhibitors of DNA damage repair, both as single agents and in combinations. Complex tumor spheroids comprised of malignant cells, endothelial cells and mesenchymal stem cells served as an in vitro model for human solid tumors. This model system incorporates physiologically relevant features and patient-derived or established malignant cell lines with clinically relevant genetic alterations from many tumor types. Twenty-six patient-derived or established malignant cell lines were evaluated representing sarcoma, melanoma, small cell lung cancer (SCLC), non-small cell lung cancer (NSCLC), as well as bladder, ovarian and pancreatic cancers. The concentration ranges selected for each drug and investigational agent were based upon clinically achievable concentrations if the clinical Cmax of the agent was known.
Compounds. The drugs and compounds olaparib (NSC753686), talazoparib (NSC767125), berzosertib (NSC777718), elimusertib (NSC800525), nedisertib (NSC802822), VX-984 (NSC792969), AZD-1390 (NSC803789), temozolomide (NSC362856), topotecan (NSC609699), trabectedin (NSC813783), staurosporine (NSC755774), and gemcitabine (NSC613327) were obtained from the National Cancer Institute (NCI) Developmental Therapeutics Program Chemical Repository. The FDA-approved anticancer drug set is available from the Developmental Therapeutics Program at https://dtp.cancer.gov/organization/dscb/obtaining/available_plates.htm. […] The stock solutions were prepared in dimethyl sulfoxide (DMSO, Sigma-Aldrich, St. Louis, MO, cat. D2650) at 400-fold the tested concentration and stored at -70 degrees C. Prior to their use, the stock solutions were diluted in fresh medium and the final DMSO concentration in the assay was 0.25% (v/v). All drugs and investigational agents were tested over a range starting from a high concentration at or near the clinical Cmax and decreasing in half-log increments. If the clinical Cmax for an agent had not been determined, the highest concentration tested was 10 microM.
Cell Lines. The patient-derived cancer cell (PDC) lines: 156681-154-R-J1-PDC, 283228-195-R-J1-PDC, 287954-098-R-J1-PDC, 292921-168-R-J2-PDC, 349418-098-R-PDC, 425362-245-T-J1-PDC, 556581-035-R-J1-PDC, and BL0293-F563-PDC were received from the NCI Patient-Derived Models Repository (PDMR, https://pdmr.cancer.gov). The established cell lines HS-SY-2 (RRID:CVCL_8719), MPNST, and SYO-1 (RRID:CVCL_7146) were obtained from the Sloan Kettering Institute. The alveolar soft parts sarcoma cell line ASPS-1 (RRID:CVCL_S738) was established at the NCI and grown from internal seed stocks. The following established cell lines were purchased from the American Type Culture Collection (ATCC, Manassas, VA): G-401 (ATCC, cat. CRL-1441, RRID:CVCL_0270), SW982 (ATCC, cat. HTB-93, RRID:CVCL_1734), VA-ES-BJ (ATCC, cat. CRL-2138, RRID:CVCL_1785), NCI-H719 (ATCC, cat. CRL-5837, RRID:CVCL_1582), NCI-H196 (ATCC, cat. CRL-5823, RRID:CVCL_1509), NCI-H841 (ATCC, cat. CRL-5845, RRID:CVCL_1595), NCI-H1618 (ATCC, cat. CRL-5879, RRID:CVCL_1480), NCI-H1876 (ATCC, cat. CRL-5902, RRID:CVCL_1503), DMS 114 (ATCC, cat. CRL-2066; RRID:CVCL_1174), NCI-H211 (ATCC, cat. CRL-5824; RRID:CVCL_1529), and SW 1271 (ATCC, cat. CRL-2177, RRID:CVCL_1716). The small cell lung cancer cell line COR-L88 was purchased from Sigma-Aldrich (cat. 92031917-1VL, RRID:CVCL_1141). The non-small cell lung cancer cell lines NCI-H226 (RRID:CVCL_1544) and NCI-H322M (RRID:CVCL_1557) were established at the NCI and grown from internal seed stocks. Pooled donor human umbilical vein endothelial cells (HUVEC, Lonza, cat. CC-2519) and human mesenchymal stem cells (hMSC, Lonza, cat. PT-2501) were purchased from Lonza (Walkersville, MD).
Cell Culture. All cells were maintained in an incubator at 37 degrees C and 5% CO2 with 95% humidity. […]
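Further: spheroids exposed to compound for 7 days before measurement.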
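Wherever viability, T/C is given: percent of vehicle control viability with 100% = DMSO-treated spheroids.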

O=C(c1cc(Cc2n[nH]c(=O)c3ccccc23)ccc1F)N1CCN(C(=O)C2CC2)CC1 + Cn1nnc2c(C(N)=O)ncn2c1=O
IC50 (second compound 1 µM): > 30 µM
IC50 (second compound 3.16 µM): > 30 µM
IC50 (second compound 10 µM): 23.2 µM
IC50 (second compound 31.6 µM): 7.27 µM
IC50 (second compound 100 µM): 1.81 µM
viability, T/C (second compound 1 µM, first compound 0.0949 µM): 98.5%
viability, T/C (second compound 1 µM, first compound 0.3 µM): 98.9%
viability, T/C (second compound 1 µM, first compound 0.949 µM): 103%
viability, T/C (second compound 1 µM, first compound 3 µM): 98.7%
viability, T/C (second compound 1 µM, first compound 9.49 µM): 79.9%
viability, T/C (second compound 1 µM, first compound 30 µM): 57%
viability, T/C (second compound 3.16 µM, first compound 0.0949 µM): 99.5%
viability, T/C (second compound 3.16 µM, first compound 0.3 µM): 100%
viability, T/C (second compound 3.16 µM, first compound 0.949 µM): 99%
viability, T/C (second compound 3.16 µM, first compound 3 µM): 99%
viability, T/C (second compound 3.16 µM, first compound 9.49 µM): 89.1%
viability, T/C (second compound 3.16 µM, first compound 30 µM): 60.3%
viability, T/C (second compound 10 µM, first compound 0.0949 µM): 103%
viability, T/C (second compound 10 µM, first compound 0.3 µM): 103%
viability, T/C (second compound 10 µM, first compound 0.949 µM): 102%
viability, T/C (second compound 10 µM, first compound 3 µM): 96.8%
viability, T/C (second compound 10 µM, first compound 9.49 µM): 81.9%
viability, T/C (second compound 10 µM, first compound 30 µM): 40.5%
viability, T/C (second compound 31.6 µM, first compound 0.0949 µM): 102%
viability, T/C (second compound 31.6 µM, first compound 0.3 µM): 98.5%
viability, T/C (second compound 31.6 µM, first compound 0.949 µM): 100%
viability, T/C (second compound 31.6 µM, first compound 3 µM): 94.7%
viability, T/C (second compound 31.6 µM, first compound 9.49 µM): 36.6%
viability, T/C (second compound 31.6 µM, first compound 30 µM): 16%
viability, T/C (second compound 100 µM, first compound 0.0949 µM): 96.5%
viability, T/C (second compound 100 µM, first compound 0.3 µM): 98%
viability, T/C (second compound 100 µM, first compound 0.949 µM): 78.2%
viability, T/C (second compound 100 µM, first compound 3 µM): 27.9%
viability, T/C (second compound 100 µM, first compound 9.49 µM): 10.2%
viability, T/C (second compound 100 µM, first compound 30 µM): 9.95%

O=C(c1cc(Cc2n[nH]c(=O)c3ccccc23)ccc1F)N1CCN(C(=O)C2CC2)CC1 + CC[C@@]1(O)C(=O)OCc2c1cc1n(c2=O)Cc2cc3c(CN(C)C)c(O)ccc3nc2-1
IC50 (second compound 0.003 µM): 27.4 µM
IC50 (second compound 0.00949 µM): 23.4 µM
IC50 (second compound 0.03 µM): 4.08 µM
IC50 (second compound 0.0949 µM): < 0.0949 µM
IC50 (second compound 0.3 µM): < 0.0949 µM
viability, T/C (second compound 0.003 µM, first compound 0.0949 µM): 102%
viability, T/C (second compound 0.003 µM, first compound 0.3 µM): 96.3%
viability, T/C (second compound 0.003 µM, first compound 0.949 µM): 98%
viability, T/C (second compound 0.003 µM, first compound 3 µM): 97.6%
viability, T/C (second compound 0.003 µM, first compound 9.49 µM): 76%
viability, T/C (second compound 0.003 µM, first compound 30 µM): 47.8%
viability, T/C (second compound 0.00949 µM, first compound 0.0949 µM): 99.2%
viability, T/C (second compound 0.00949 µM, first compound 0.3 µM): 101%
viability, T/C (second compound 0.00949 µM, first compound 0.949 µM): 97.8%
viability, T/C (second compound 0.00949 µM, first compound 3 µM): 94.3%
viability, T/C (second compound 0.00949 µM, first compound 9.49 µM): 72.6%
viability, T/C (second compound 0.00949 µM, first compound 30 µM): 43.8%
viability, T/C (second compound 0.03 µM, first compound 0.0949 µM): 67.3%
viability, T/C (second compound 0.03 µM, first compound 0.3 µM): 72.8%
viability, T/C (second compound 0.03 µM, first compound 0.949 µM): 61.5%
viability, T/C (second compound 0.03 µM, first compound 3 µM): 58.8%
viability, T/C (second compound 0.03 µM, first compound 9.49 µM): 29.8%
viability, T/C (second compound 0.03 µM, first compound 30 µM): 12.8%
viability, T/C (second compound 0.0949 µM, first compound 0.0949 µM): 19.8%
viability, T/C (second compound 0.0949 µM, first compound 0.3 µM): 21.7%
viability, T/C (second compound 0.0949 µM, first compound 0.949 µM): 20.8%
viability, T/C (second compound 0.0949 µM, first compound 3 µM): 18%
viability, T/C (second compound 0.0949 µM, first compound 9.49 µM): 12%
viability, T/C (second compound 0.0949 µM, first compound 30 µM): 7.08%
viability, T/C (second compound 0.3 µM, first compound 0.0949 µM): 3.58%
viability, T/C (second compound 0.3 µM, first compound 0.3 µM): 3.79%
viability, T/C (second compound 0.3 µM, first compound 0.949 µM): 4.35%
viability, T/C (second compound 0.3 µM, first compound 3 µM): 4.53%
viability, T/C (second compound 0.3 µM, first compound 9.49 µM): 3.36%
viability, T/C (second compound 0.3 µM, first compound 30 µM): 3.46%
